Test results: PubChem BioAssay AID330 (DTP/NCI, 2004)
Inconclusive results and toxic doses are left out.

Tested on: P388 leukemia ip, CD2F1 mice, survival T/C
Experiment: NCI In Vivo Anticancer Drug Screen. Data for tumor model P388 Leukemia (intraperitoneal) in CD2F1 (CDF1) mice
Settings: endpoint: median survival time, higher = longer survival
Protocol: The antitumor activity of compounds was measured in mice bearing transplantable tumors. Survival or tumor size were measured and the results are expressed as the measurement made in the treated group (T) divided by the measurement made in the vehicle treated control group (C). The tumor model used in this assay is P388 Leukemia (intraperitoneal) in CD2F1 (CDF1) mice

[1] = dose: 12.5 mg/kg/injection, schedule: Q01DX009 (ip), vehicle: saline with Tween-80
[2] = dose: 25.0 mg/kg/injection, schedule: Q01DX009 (ip), vehicle: saline with Tween-80
[3] = dose: 50.0 mg/kg/injection, schedule: Q01DX005 (ip), vehicle: saline with Tween-80
[4] = dose: 100.0 mg/kg/injection, schedule: Q01DX005 (ip), vehicle: saline with Tween-80
[5] = dose: 200.0 mg/kg/injection, schedule: Q01DX005 (ip), vehicle: saline with Tween-80
[6] = dose: 60.0 mg/kg/injection, schedule: Q01DX005 (ip), vehicle: Klucel (hydroxypropylcellulose) (HPC)
[7] = dose: 120.0 mg/kg/injection, schedule: Q01DX005 (ip), vehicle: Klucel (hydroxypropylcellulose) (HPC)
[8] = dose: 240.0 mg/kg/injection, schedule: Q01DX005 (ip), vehicle: Klucel (hydroxypropylcellulose) (HPC)
[9] = dose: 200.0 mg/kg/injection, schedule: Q01DX001 (ip), vehicle: Klucel (hydroxypropylcellulose) (HPC)
[10] = dose: 400.0 mg/kg/injection, schedule: Q01DX001 (ip), vehicle: Klucel (hydroxypropylcellulose) (HPC)
[11] = dose: 50.0 mg/kg/injection, schedule: Q01DX009 (ip), vehicle: saline with Tween-80
[12] = dose: 25.0 mg/kg/injection, schedule: Q04DX002 (ip), vehicle: saline with Tween-80

O=C(Nc1ccc(C(=O)Nc2ccc(C3=NCCCN3)cc2)cc1)Nc1ccc(C2=NCCCN2)cc1
T/C (dose: 6.25 mg/kg/injection, schedule: Q04DX003 (ip), vehicle: saline with Tween-80): 108 % of control
T/C [1]: 204 % of control
T/C [2]: 122 % of control
T/C (dose: 25.0 mg/kg/injection, schedule: Q04DX003 (ip), vehicle: saline with Tween-80): 150 % of control
T/C (dose: 100.0 mg/kg/injection, schedule: Q04DX003 (ip), vehicle: saline): 90 % of control

CCN(CC)CCOc1ccc(C2=C(c3ccc(OC)cc3)Cc3cc(OC)ccc32)cc1
T/C (dose: 6.25 mg/kg/injection, schedule: Q01DX005 (ip), vehicle: saline with Tween-80): 101 % of control
T/C (dose: 12.5 mg/kg/injection, schedule: Q01DX005 (ip), vehicle: saline with Tween-80): 101 % of control
T/C (dose: 25.0 mg/kg/injection, schedule: Q01DX005 (ip), vehicle: saline with Tween-80): 105 % of control
T/C [3]: 106 % of control
T/C [4]: 106 % of control
T/C [5]: 102 % of control

COC(OC)C(Sc1ccccc1-n1cccc1)c1ccccc1 (stereo not given)
T/C (dose: 60.0 mg/kg/injection, schedule: Q01DX005 (ip), vehicle: saline): 105 % of control
T/C (dose: 120.0 mg/kg/injection, schedule: Q01DX005 (ip), vehicle: saline): 103 % of control
T/C (dose: 240.0 mg/kg/injection, schedule: Q01DX005 (ip), vehicle: saline): 108 % of control

O=NN(C(=O)NC1CC1)C1CCCC1
T/C (dose: 25.0 mg/kg/injection, schedule: Q01DX001 (ip), vehicle: distilled water + Tween-80): 103 % of control
T/C (dose: 50.0 mg/kg/injection, schedule: Q01DX001 (ip), vehicle: distilled water + Tween-80): 109 % of control
T/C (dose: 100.0 mg/kg/injection, schedule: Q01DX001 (ip), vehicle: distilled water + Tween-80): 102 % of control
T/C (dose: 200.0 mg/kg/injection, schedule: Q01DX001 (ip), vehicle: distilled water + Tween-80): 111 % of control
T/C (dose: 400.0 mg/kg/injection, schedule: Q01DX001 (ip), vehicle: distilled water + Tween-80): 102 % of control

COc1cc2c(cc1Oc1ccc(OC)c3c1CC1c4c(cc(OC)c(OC)c4-3)CCN1C)CC1c3c(cc(OC)c(OC)c3-2)CCN1C (stereo not given)
T/C (dose: 20.0 mg/kg/injection, schedule: Q01DX009 (ip), vehicle: water): 94 % of control
T/C (dose: 40.0 mg/kg/injection, schedule: Q01DX009 (ip), vehicle: water): 101 % of control
T/C (dose: 80.0 mg/kg/injection, schedule: Q01DX009 (ip), vehicle: water): 93 % of control
T/C (dose: 160.0 mg/kg/injection, schedule: Q01DX009 (ip), vehicle: water): 93 % of control

CSc1nc(N)c(NS(=O)(=O)c2ccccc2)c(=O)[nH]1
T/C [6]: 92 % of control
T/C [7]: 91 % of control
T/C [8]: 90 % of control

CCOC(=O)c1cc(=O)c2c(OC)ccc(OC)c2[nH]1
T/C [3]: 90 % of control
T/C [4]: 98 % of control
T/C [5]: 97 % of control

COP(=O)(O)OC
T/C [9]: 88 % of control
T/C [10]: 100 % of control

Cc1cn[nH]c(=O)c1
T/C [11]: 99 % of control
T/C (dose: 100.0 mg/kg/injection, schedule: Q01DX009 (ip), vehicle: saline with Tween-80): 99 % of control
T/C (dose: 200.0 mg/kg/injection, schedule: Q01DX009 (ip), vehicle: saline with Tween-80): 99 % of control

COc1ccc2c(C)cc(N/N=C/c3ccccc3)nc2c1
T/C (dose: 50.0 mg/kg/injection, schedule: Q01DX005 (ip), vehicle: Klucel (hydroxypropylcellulose) (HPC)): 89 % of control
T/C (dose: 100.0 mg/kg/injection, schedule: Q01DX005 (ip), vehicle: Klucel (hydroxypropylcellulose) (HPC)): 98 % of control
T/C (dose: 200.0 mg/kg/injection, schedule: Q01DX005 (ip), vehicle: Klucel (hydroxypropylcellulose) (HPC)): 98 % of control

COc1cc(/C=C/C(=O)CC(=O)/C=C/c2ccc(O)c(OC)c2)ccc1O
T/C (dose: 6.25 mg/kg/injection, schedule: Q01DX009 (ip), vehicle: saline with Tween-80): 103 % of control
T/C [1]: 100 % of control
T/C [2]: 100 % of control
T/C [11]: 94 % of control

CN=C(N)N/N=C(\C)c1ccc(/C(C)=N/NC(N)=NC)cc1
T/C [12]: 112 % of control

COC(=O)c1cccnc1C#N
T/C (dose: 30.0 mg/kg/injection, schedule: Q01DX005 (ip), vehicle: Klucel (hydroxypropylcellulose) (HPC)): 100 % of control
T/C [6]: 110 % of control
T/C [7]: 102 % of control
T/C [8]: 112 % of control

N.N.O=C([O-])/C=C\C(=O)[O-].[Pt]
T/C (dose: 4.38 mg/kg/injection, schedule: Q04DX002 (ip), vehicle: saline with Tween-80): 117 % of control

Cc1ccc2[nH]c(=O)oc2c1
T/C [12]: 90 % of control
T/C (dose: 50.0 mg/kg/injection, schedule: Q04DX002 (ip), vehicle: saline with Tween-80): 101 % of control

O=C1C(N=Nc2cc(Cl)ccc2Cl)C(O)N(c2ccccc2)C(=S)N1c1cccc(Cl)c1Cl (stereo not given)
T/C (dose: 100.0 mg/kg/injection, schedule: Q01DX001 (ip), vehicle: Klucel (hydroxypropylcellulose) (HPC)): 98 % of control
T/C [9]: 97 % of control
T/C [10]: 92 % of control

O=C(Nc1ncnc2nc(-c3ccccc3)[nH]c12)c1ccccc1
T/C [6]: 107 % of control
T/C [7]: 95 % of control
T/C [8]: 95 % of control
